Data reported in patent US20230014430A1, “Methods and Compositions for Generating Functionally Mature Beta Cells and Uses Thereof” (Washington University, priority 2019, published 2023).

B1: TGFβ2: TGFβ agonist (growth factor) (protein, UniProt P61812 303-414, looked up)
Transforming growth factor …: ALDAAYCFRNVQDNCCLRPLYIDFKRDLGWKWIHEPKGYNANFCAGACPYLWSSDTQHSRVLSLYNTINPEASASPCCVSQDLEPLTILYYIGKTPKIEQLSNMIVKSCKCS

How the values were obtained:
Format in all cases: cell-based, human
[1] = system: SIX2 gene expression; assay: SC-β cells treated with a library of compounds to identify SIX2 regulators; conditions: FIG. 11
Protocol: FIG. 11. Regulators of SIX2. SC-β cells were treated with a library of compound to identify SIX2 regulators. […] (B) Negative Regulators of SIX2 gene expression. (C) Flow cytometry of SC-β cells treated with SIX2 regulators.
Here, regulators of SIX2 gene expression were discovered (see e.g., FIG. 11). It was discovered that (1) regulators of SIX2 affect the % of SC-β cells generated (see e.g., FIG. 12); (2) SIX2 regulators influence SC-β cell function (see e.g., FIG. 13); (3) SIX2 is expressed by only a fraction of C-peptide positive cells (SC-β cells) (see e.g., FIG. 12A, FIG. 2B); and (4) SIX2+ cells secrete insulin in response to glucose when single cell dispersed and plated down (see e.g., FIG. 14).

[2] = system: SC-β cells; assay: Dynamic glucose-stimulated insulin secretion of stage 6 cells (perifusion); conditions: HUES8 hESC and 1013-4FA hiPSC lines, vs sh-ctrl
Protocol: (§1) Gene KD was performed similar to as previously described (Velazco-Cruz et al., 2019). pLKO.1 TRC plasmids containing shRNA sequences targeting GFP (sh-ctrl) and human SIX2 (sh-SIX2-1 and sh-SIX2-2) were received from the RNAi Core at the Washington University. sh-ctrl, […] (SEQ ID NO: 35); sh-SIX2-1, […] (SEQ ID NO: 36); sh-SIX2-2, […] (SEQ ID NO: 37). Viral particles were generated using Lenti-X 293T cells (Takara; 632180) cultured in DMEM (MilliporeSigma; D6429) with 10% heat inactivated fetal bovine serum (MilliporeSigma; F4135). Confluent Lenti-X 293T cells were transfected with […] of shRNA plasmid, […] of psPAX2 (Addgene; 12260), and 1.5 μg pMD2.G (Addgene; 12259) packaging plasmids in 600 μL of Opti-MEM (Life Technologies; 31985-070) and 48 μL of Polyethylenimine ‘Max’ MW 40,000 Da (Polysciences; 24765-2). 16 hours post transfection media was switched. Viral containing supernatant was collected at 96 hours post transfection and concentrated using Lenti-X concentrator (Takara; 631232). Collected lentivirus was tittered using Lenti-X qRT-PCR Titration Kit (Takara; 631235). […]
Measurements were performed as previously described (Velazco-Cruz et al., 2019). […] Insulin was quantified with a human insulin ELISA (ALPCO; 80-INSHU-E10.1). DNA quantification was performed by lysing the cells and measuring with the Quant-iT Picogreen dsDNA assay kit (Invitrogen; P7589). […]

[3] = system: SC-β cells; assay: Static glucose-stimulated insulin secretion of stage 6 cells; conditions: HUES8 hESC and 1013-4FA hiPSC lines, vs sh-ctrl
Protocol: as §1
Measurements were performed as previously described (Velazco-Cruz et al., 2019). […] Insulin was quantified with a human insulin ELISA (ALPCO; 80-INSHU-E10.1). Cell quantification was performed by dispersing with trypLE and counting with the Vi-Cell XR.

Molecule	regulation of SIX2 expression in SC-β cells [1]	dynamic glucose-stimulated insulin secretion [2]	static glucose-stimulated insulin secretion [3]
AZD4547	positive regulators		
Cc1c[nH]c(-c2cnc(NCCNc3ccc(C#N)cn3)nc2-c2ccc(Cl)cc2Cl)n1 [CHIR99021]	positive regulator		
sh-SIX2-1: lentiviral pLKO.1 TRC shRNA targeting human SIX2, CAACGAGAACTCCAATTCTAA (SEQ ID NO: 36)		significant reductions	significant reductions
Cc1ccc(-n2nc(C(C)(C)C)cc2NC(=O)Nc2ccc(OCCN3CCOCC3)c3ccccc23)cc1 [doramapimod]	positive regulators		
Nc1ncn([C@@H]2O[C@H](CO)[C@@H](O)[C@H]2O)c(=O)n1 [5-Azacytidine]	positive regulator		
Nc1nccc2c1ncn2[C@@H]1C=C(CO)[C@@H](O)[C@H]1O [3-Deazaneplanocin A]	positive regulator		
TGFβ1: TGFβ agonist (growth factor)	positive regulators		
sh-SIX2-2: lentiviral pLKO.1 TRC shRNA targeting human SIX2, GAGCACCTTCACAAGAATGAA (SEQ ID NO: 37)		significant reductions	significant reductions
B1	positive regulators		
